Measurements: PMC7180572, “5-Alkylamino-N-phenylpyrazine-2-carboxamides: Design, Preparation, and Antimycobacterial Evaluation” (Molecules, 2020)
Values after ≈ are worked out from the molar mass of the structure shown. Like-named read-outs stand apart in the source and are kept apart here.

Columns and labels:
[1] = system: Mycobacterium smegmatis DSM 43465 (ATCC 607); experiment: Microdilution broth, modified Microplate Alamar Blue Assay, whole cell growth inhibition; assay type: cell-based; conditions: Mycolicibacterium smegmatis, read-out: MIC Mycobacterium smegmatis
[2] = system: Mycobacterium tuberculosis H37Ra ITM-M006710 (ATCC 9431); experiment: Microdilution broth, modified Microplate Alamar Blue Assay, whole cell growth inhibition; assay type: cell-based; conditions: Mycobacterium tuberculosis; in vitro, Middlebrook 7H9 broth, resazurin; read-out: MIC Mtb H37Ra
[3] = assay type: physicochemical
Procedure: As a complementary test, final compounds were tested for in vitro activity against selected fungal and bacterial pathogens of clinical importance. The microdilution broth method was performed according to The European Committee on Antimicrobial Susceptibility Testing (EUCAST) instructions with slight modifications. The minimum inhibitory concentration was expressed in µM. Not all compounds were evaluated due to the fact of a problem with solubility which occurred for 18 samples. […] See Supplementary Materials for the list of tested strains, methodology, and full results.

[4] = system: Mycobacterium aurum DSM 43999 (ATCC 23366); experiment: Microdilution broth, modified Microplate Alamar Blue Assay, whole cell growth inhibition; assay type: cell-based; conditions: Mycolicibacterium aurum, read-out: MIC Mycobacterium aurum
HepG2 cells = experiment: HepG2 cytotoxicity, CellTiter 96 (MTS) assay; assay type: cell-based, human; conditions: for IC50: Homo sapiens, read-out: HepG2 IC50
[5] = system: Aspergillus flavus CCM 8363; experiment: Antifungal microdilution broth method (EUCAST); assay type: cell-based; conditions: read-out: MIC AFla
[6] = system: Staphylococcus aureus spp.aureus ATCC 29213, CCM 4223; experiment: Antibacterial microdilution broth method (EUCAST); assay type: cell-based; conditions: read-out: MIC SA
[7] = system: Klebsiella pneumoniae ATCC 10031, CCM 4415; experiment: Antibacterial microdilution broth method (EUCAST)
[8] = system: Pseudomonas aeruginosa ATCC 27853, CCM 3955; experiment: Antibacterial microdilution broth method (EUCAST); assay type: cell-based; conditions: read-out: MIC PA
[9] = system: Candida tropicalis ATCC 750, CCM 8264; experiment: Antifungal microdilution broth method (EUCAST); assay type: cell-based; conditions: read-out: MIC CT
[10] = system: Aspergillus fumigatus ATCC 204305; experiment: Antifungal microdilution broth method (EUCAST); assay type: cell-based; conditions: read-out: MIC AF
[11] = system: Acinetobacter baumanii ATCC 19606, DSM 30007; experiment: Antibacterial microdilution broth method (EUCAST); assay type: cell-based; conditions: Acinetobacter baumannii
[12] = system: Escherichia coli ATCC 25922, CCM 3954; experiment: Antibacterial microdilution broth method (EUCAST); assay type: cell-based; conditions: read-out: MIC EC
[13] = system: Candida krusei ATCC 6258, CCM 8271; experiment: Antifungal microdilution broth method (EUCAST); assay type: cell-based; conditions: Pichia kudriavzevii, read-out: MIC CK
[14] = system: Staphylococcus epidermidis ATCC 12228, CCM 4418; experiment: Antibacterial microdilution broth method (EUCAST); assay type: cell-based; conditions: read-out: MIC SE
[15] = system: Enterococcus faecalis ATCC 29212, CCM 4224; experiment: Antibacterial microdilution broth method (EUCAST); assay type: cell-based; conditions: read-out: MIC EF
[16] = system: Candida parapsilosis ATCC 22019, CCM 8260; experiment: Antifungal microdilution broth method (EUCAST); assay type: cell-based; conditions: Lodderomyces parapsilosis, read-out: MIC CP
[17] = system: Absidia corymbifera CCM 8077 (Lichtheimia corymbifera); experiment: Antifungal microdilution broth method (EUCAST); assay type: cell-based; conditions: read-out: MIC AC
[18] = system: Candida albicans ATCC 24433, CCM 8320; experiment: Antifungal microdilution broth method (EUCAST); assay type: cell-based; conditions: read-out: MIC CA
[19] = system: Staphylococcus aureus methicillin resistant ATCC 43300, CCM 4750; experiment: microbe, parasite or virus in culture; assay type: cell-based; conditions: ATCC 43300 / CCM 4750 / MRSA, read-out: MIC MRSA
[20] = system: Trichophyton interdigitale ATCC 9533, CCM 8377; experiment: Antifungal microdilution broth method (EUCAST); assay type: cell-based; conditions: read-out: MIC TI
[21] = in vitro, Middlebrook 7H9 broth, resazurin
[22] = HepG2, 24 h incubation, > means higher concentration not reproducible due to precipitation

Structure (SMILES): CCCCCNc1cnc(C(=O)Nc2cccc(O)c2)cn1 [Compound 2c, N-(3-hydroxyphenyl)-5-(pentylamino)pyrazine-2-carboxamide]
- MIC [1, 21]: ≥ 500 µg/mL
- melting point: 224.8 to 226.1 °C
- MIC [2]: ≥ 500 µg/mL
- Solubility problem in antibacterial/antifungal testing [3]: precipitated in both growth media
- MIC [4, 21]: ≥ 500 µg/mL
- IC50 (HepG2 cells; [22]): > 10 µM

Structure (SMILES): CCCCCCNc1cnc(C(=O)Nc2cccc(O)c2)cn1 [Compound 2d, 5-(Hexylamino)pyrazine-N-(3-hydroxyphenyl)-2-carboxamide]
- MIC [1, 21]: ≥ 500 µg/mL
- melting point: 225 to 226 °C
- MIC [2]: ≥ 500 µg/mL
- Solubility problem in antibacterial/antifungal testing [3]: precipitated in both growth media
- MIC [4, 21]: ≥ 500 µg/mL
- IC50 (HepG2 cells; [22]): > 10 µM

Structure (SMILES): CCCCCCCNc1cnc(C(=O)Nc2cccc(O)c2)cn1 [Compound 2e, 5-(Heptylamino)pyrazine-N-(3-hydroxyphenyl)-2-carboxamide]
- MIC [1, 21]: 250 µg/mL (≈ 761 µM)
- melting point: 222 to 223 °C
- MIC [2]: ≥ 500 µg/mL
- Solubility problem in antibacterial/antifungal testing [3]: precipitated in both growth media
- MIC [4, 21]: ≥ 500 µg/mL
- IC50 (HepG2 cells; [22]): > 10 µM

Structure (SMILES): CCCNc1cnc(C(=O)Nc2ccc(C)cc2)cn1 [Compound 4a, 5-(Propylamino)-N-(p-tolyl)pyrazine-2-carboxamide]
- MIC [1, 21]: 31.2 µg/mL (≈ 116 µM)
- melting point: 168 to 169 °C
- MIC [2]: 15.6 µg/mL (≈ 57.8 µM)
- Solubility problem in antibacterial/antifungal testing [3]: precipitated in both growth media
- MIC [4, 21]: ≥ 500 µg/mL
- IC50 (HepG2 cells; [22]): > 100 µM
- SI, selectivity index (HepG2 cells; IC50 (HepG2)/MIC against Mtb H37Ra (in µM)): >1.73

Structure (SMILES): CCCCNc1cnc(C(=O)Nc2ccc(CC)cc2)cn1 [Compound 5b, 5-(Butylamino)pyrazine-N-(4-ethylphenyl)-2-carboxamide]
- MIC [1, 21]: ≥ 500 µg/mL
- melting point: 133.8 to 134.8 °C
- MIC [2]: ≥ 500 µg/mL
- Solubility problem in antibacterial/antifungal testing [3]: precipitated in both growth media
- MIC [4, 21]: ≥ 500 µg/mL
- IC50 (HepG2 cells; [22]): > 50 µM

Structure (SMILES): CCCCCNc1cnc(C(=O)Nc2ccc(CC)cc2)cn1 [Compound 5c, N-(4-ethylphenyl)-5-(pentylamino)pyrazine-2-carboxamide]
- MIC [1, 21]: ≥ 500 µg/mL
- melting point: 136.1 to 137.1 °C
- MIC [2]: ≥ 500 µg/mL
- Solubility problem in antibacterial/antifungal testing [3]: precipitated in both growth media
- MIC [4, 21]: ≥ 500 µg/mL
- IC50 (HepG2 cells; [22]): > 25 µM

Structure (SMILES): CCCCCCNc1cnc(C(=O)Nc2ccc(CC)cc2)cn1 [Compound 5d, N-(4-ethylphenyl)-5-(hexylamino)pyrazine-2-carboxamide]
- MIC ([5]; CCM8363, 24 h): > 125 µM
- MIC ([5]; CCM8363, 48 h): > 125 µM
- MIC ([6]; 24 h): > 500 µM
- MIC ([6]; 48 h): > 500 µM
- MIC [1]: ≥ 500 µg/mL
- MIC KP ([7]; 24h): > 500 µM
- MIC KP ([7]; 48h): > 500 µM
- MIC ([8]; 72 h): > 500 µM
- MIC ([8]; 120 h): > 500 µM
- MIC ([9]; 24 h): > 125 µM
- MIC ([9]; 48 h): > 125 µM
- melting point: 138 to 139 °C
- MIC [2]: ≥ 500 µg/mL
- MIC ([10]; ATCC204305, 24 h): > 125 µM
- MIC ([10]; ATCC204305, 48 h): > 125 µM
- MIC ([11]; 24h): > 500 µM
- MIC ([11]; 48h): > 500 µM
- MIC ([12]; 24 h): > 500 µM
- MIC ([12]; 48 h): > 500 µM
- MIC ([13]; 24 h): > 125 µM
- MIC ([13]; 48 h): > 125 µM
- MIC [4]: ≥ 500 µg/mL
- MIC ([14]; 24 h): > 500 µM
- MIC ([14]; 48 h): > 500 µM
- MIC ([15]; 24 h): > 500 µM
- MIC ([15]; 48 h): > 500 µM
- MIC ([16]; 24 h): > 125 µM
- MIC ([16]; 48 h): > 125 µM
- MIC ([17]; CCM8077, 24 h): > 125 µM
- MIC ([17]; CCM8077, 48 h): > 125 µM
- MIC ([18]; 24 h): > 125 µM
- MIC ([18]; 48 h): > 125 µM
- MIC ([19]; 24 h): > 500 µM
- MIC ([19]; 48 h): > 500 µM
- MIC ([20]; 72 h): > 125 µM
- MIC ([20]; 120 h): > 125 µM
- IC50 (HepG2 cells; HepG2, 24 h): > 25 µM

Structure (SMILES): CCCCCCCNc1cnc(C(=O)Nc2ccc(CC)cc2)cn1 [Compound 5e, N-(4-ethylphenyl)-5-(heptylamino)pyrazine-2-carboxamide]
- MIC ([5]; CCM8363, 24 h): > 125 µM
- MIC ([5]; CCM8363, 48 h): > 125 µM
- MIC ([6]; 24 h): > 500 µM
- MIC ([6]; 48 h): > 500 µM
- MIC [1]: ≥ 500 µg/mL
- MIC KP ([7]; 24h): > 500 µM
- MIC KP ([7]; 48h): > 500 µM
- MIC ([8]; 72 h): > 500 µM
- MIC ([8]; 120 h): > 500 µM
- MIC ([9]; 24 h): > 125 µM
- MIC ([9]; 48 h): > 125 µM
- melting point: 131 to 132 °C
- MIC [2]: ≥ 500 µg/mL
- MIC ([10]; ATCC204305, 24 h): > 125 µM
- MIC ([10]; ATCC204305, 48 h): > 125 µM
- MIC ([11]; 24h): > 500 µM
- MIC ([11]; 48h): > 500 µM
- MIC ([12]; 24 h): > 500 µM
- MIC ([12]; 48 h): > 500 µM
- MIC ([13]; 24 h): > 125 µM
- MIC ([13]; 48 h): > 125 µM
- MIC [4]: ≥ 500 µg/mL
- MIC ([14]; 24 h): > 500 µM
- MIC ([14]; 48 h): > 500 µM
- MIC ([15]; 24 h): > 500 µM
- MIC ([15]; 48 h): > 500 µM
- MIC ([16]; 24 h): > 125 µM
- MIC ([16]; 48 h): > 125 µM
- MIC ([17]; CCM8077, 24 h): > 125 µM
- MIC ([17]; CCM8077, 48 h): > 125 µM
- MIC ([18]; 24 h): > 125 µM
- MIC ([18]; 48 h): > 125 µM
- MIC ([19]; 24 h): > 500 µM
- MIC ([19]; 48 h): > 500 µM
- MIC ([20]; 72 h): > 125 µM
- MIC ([20]; 120 h): > 125 µM
- IC50 (HepG2 cells; HepG2, 24 h): > 25 µM

Structure (SMILES): CCCCCCCCNc1cnc(C(=O)Nc2ccc(CC)cc2)cn1 [Compound 5f, N-(4-ethylphenyl)-5-(octylamino)pyrazine-2-carboxamide]
- MIC [1, 21]: ≥ 250 µg/mL
- melting point: 131 to 132 °C
- MIC [2]: ≥ 250 µg/mL
- Solubility problem in antibacterial/antifungal testing [3]: precipitated in both growth media
- MIC [4, 21]: ≥ 250 µg/mL
- IC50 (HepG2 cells; [22]): > 10 µM

Structure (SMILES): CCCCCCCCNc1cnc(C(=O)Nc2ccc(Cl)cc2O)cn1 [Compound 6f, N-(4-chloro-2-hydroxyphenyl)-5-(octylamino)pyrazine-2-carboxamide]
- MIC [1, 21]: 7.81 µg/mL (≈ 20.7 µM)
- melting point: 196.9 to 197.9 °C
- MIC [2]: ≥ 500 µg/mL
- Solubility problem in antibacterial/antifungal testing [3]: did not dissolve in DMSO
- MIC [4, 21]: ≥ 500 µg/mL
- IC50 (HepG2 cells; [22]): > 50 µM
